Patent publication US20140051650A1, “VAGINAL COMPOSITIONS BASED ON ALKYL POLYGLUCOSIDES” (EFFIK S.A., priority 2011, published 2014)

Assays:
Type in all cases: cell-based
[1] = system: Streptococcus agalactiae; experiment: Minimum Bactericidal Concentration (MBC) in liquid medium against Streptococcus agalactiae; conditions: substance alone
Method: Three Streptococcus agalactiae strains isolated from vaginal-rectal buffers during the prenatal check-ups were used for the assay. The strains were named “strain 2”, “strain 10” and “strain 11”. Isolation was carried out on a blood agar medium and identification was obtained through biochemical tests of the API 20 Strep (Bio-Mérieux) system and through the identification of the Lancefield group.
The experiments were also carried out on a Streptococcus agalactiae ATCC 12386 strain.
“Brain Heart Infusion broth” (BHIb, Becton Dickinson) medium was used for the Streptococcus agalactiae culture, “Mueller-Hinton broth” (M-Hb) medium after adding 2% “laked” horse blood and the “Mueller-Hinton agar” (M-Ha) medium with addition of defibrinated horse blood at 5% (Oxoid) were used for the antimicrobial activity assays.
The Streptococcus agalactiae strains were cultured in BHIb broth for 24 hours at 37° C. Immediately before the assay, the bacterial suspensions were diluted up to obtaining turbidity equivalent to 0.5 McFarland standard. 50 μl of a further 1:100 dilution in broth+blood at 2% were distributed in the wells of the microtitre plates. The presumed titre of the inoculum carried out through this procedure is of about 5×10^4 ufc (units forming colony)/well.
The bacterial cultures were also diluted serially according to a value 10 (up to a dilution value equivalent to 10^−7) and an aliquot of 0.1 ml of each dilution was double streaked on M-Ha +blood 5% for determining the actual titre to be used, subsequently, to determine the MBC (Minimum Bactericidal Concentration).
The assay was carried out in 96-well microtitre plates. 50 μl of M-Hb at normal concentration were deposited in the first well of each of the 5 rows. Starting from the first well of each row, […] volumes were transferred from each well to the subsequent one 10 times, thus obtaining a series of dilutions after doubling. The 12th well of each row was kept substance-free as a positive control of the bacterial growth.
Subsequently, 50 μl of bacterial inoculum of M-Hb+double concentration blood (4%) were deposited in all wells of the plate, except for the 11th of each row. Only M-Hb+double concentration blood but bacteria-free, were deposited in the 11th well, with the aim of providing negative control for each row. The described scheme was used for the assay of each of the three Streptococcus agalactiae strains.
(§1) Immediately after determining the value of the MIC for each substance, a volume equivalent to 50 μl was taken from each well and streaked on the surface of plates containing the solid medium. The plates were subsequently incubated at the conditions indicated for each microbial strain. After incubation at 37° C. for 24 hours, the number of colonies grown on the medium surface was counted thus determining the number of bacteria that survived after 24 hours of contact with the substance at the concentration present in the well. The MBC value defined as the lowest concentration of each substance capable of reducing the bacterial load by 99.9% in the previously defined assay conditions was determined through comparison between the number of bacteria that survived in each well and that of the bacterial inoculum deposited initially.

[2] = system: Gardnerella vaginalis ATCC 14018; experiment: MIC against Gardnerella vaginalis; conditions: substance alone
Method: (§2) The Gardnerella vaginalis ATCC 14018 strain, the Neisseria gonorrhoeae ATCC 43069 strain and the Candida albicans ATCC 10231 strain were also used for the experiment.
(§3) The other assayed microbial strains were cultured in the liquid media and in the incubation conditions specified in table A, following the operating procedure described above.
(§4) The assay was carried out in 96-well microtitre plates. 50 μl of substance solution at the “mother” concentration alongside 50 μl of liquid medium at double concentration were deposited in the first well of each of the 8 rows while 50 μl of liquid medium at normal concentration were deposited in the remaining 11 wells. Starting from the first well of each row, 50 μl volumes were transferred from each well to the subsequent one 10 times, thus obtaining a series of 11 dilutions after doubling. The 12th well of each row was kept substance-free as a function of positive control of the bacterial growth.
(§5) Subsequently, 50 μl of diluted bacterial inoculum as specified previously were deposited in all wells of the plate, except for the 11th of each row. Only the liquid medium at single concentration but bacteria-free, was deposited in the 11th well, with the aim of providing negative control for each row. The described scheme was used for the assay with each of the assayed microbial strains. […]

[3] = system: Gardnerella vaginalis ATCC 14018; experiment: MBC against Gardnerella vaginalis; conditions: substance alone
Method: as §1, with “The Gardnerella vaginalis ATCC 14018 strain, the Neisseria gonorrhoeae ATCC 43069 strain and the Candida albicans ATCC 10231 strain were also used for the experiment. [table] The other assayed microbial strains were cultured in the liquid media and in the incubation conditions specified in table A, following the operating procedure described above. Immediately” for “Immediately”

[4] = system: Neisseria gonorrhoeae ATCC 43069; experiment: MIC against Neisseria gonorrhoeae; conditions: substance alone
Method: as §2, §3, §4, §5

[5] = system: Neisseria gonorrhoeae ATCC 43069; experiment: MBC against Neisseria gonorrhoeae; conditions: substance alone
Method: as §1, with “The Gardnerella vaginalis ATCC 14018 strain, the Neisseria gonorrhoeae ATCC 43069 strain and the Candida albicans ATCC 10231 strain were also used for the experiment. [table] The other assayed microbial strains were cultured in the liquid media and in the incubation conditions specified in table A, following the operating procedure described above. Immediately” for “Immediately”

[6] = system: Candida albicans ATCC 10231; experiment: MIC against Candida albicans; conditions: substance alone
Method: as §2, §3, §4
Subsequently, 50 μl of diluted bacterial inoculum as specified previously were deposited in all wells of the plate, except for the 11th of each row. Only the liquid medium at single concentration but bacteria-free, was deposited in the 11th well, with the aim of providing negative control for each row. The described scheme was used for the assay with each of the assayed microbial strains.
After incubation at the conditions indicated regarding each micro-organism, the microtitre plates were examined to verify, in each well, the presence or absence of bacterial growth. The minimum inhibitory concentration is defined as the lowest concentration of the substance still capable of inhibiting bacterial growth i.e. preventing the liquid from becoming turbid within the well.

[7] = system: Candida albicans ATCC 10231; experiment: MBC against Candida albicans; conditions: substance alone
Method: as §1, with “The Gardnerella vaginalis ATCC 14018 strain, the Neisseria gonorrhoeae ATCC 43069 strain and the Candida albicans ATCC 10231 strain were also used for the experiment. [table] The other assayed microbial strains were cultured in the liquid media and in the incubation conditions specified in table A, following the operating procedure described above. Immediately” for “Immediately”

[8] = system: vaginal lactobacilli; experiment: Activity on vaginal lactobacilli compared with the pathogen strains; conditions: lactobacilli versus G. vaginalis
Method: as §1, with “By comparison, the lactobacillus strains dominating in the physiological colonization of the vaginal mucosa typical in healthy women were also tested. Thus, such explorative activity was carried out on such strains with the aim of evaluating a selectivity of the compounds of the invention with respect to the pathogenic microorganisms with respect to the lactobacillus bacterial flora. Immediately” for “Immediately”

Substance: caprylyl/capryl glucoside/C8-C10 alkyl polyglucoside [Substance A1]
- MBC ([1]; ATCC 12386 in M-Hb blood 2%): 0.097
- MBC ([1]; Strain 2 in M-Hb blood 2%): 0.097
- MBC ([1]; Strain 10 in M-Hb blood 2%): 0.194
- MBC ([1]; Strain 11 in M-Hb blood 2%): 0.097

Substance: lauryl glucoside/C12-C16 alkyl polyglucoside [Substance A2]
- MBC ([1]; ATCC 12386 in M-Hb blood 2%): 0.0097
- MBC ([1]; Strain 2 in M-Hb blood 2%): 0.0097
- MBC ([1]; Strain 10 in M-Hb blood 2%): 0.019
- MBC ([1]; Strain 11 in M-Hb blood 2%): 0.0097
- MIC [2]: 0.0048%
- MBC [3]: 0.0048%
- MIC [4]: ≦0.0012%
- MBC [5]: ≦0.0012%
- MIC [6]: 0.077%
- MBC [7]: 0.154%
- MBC values in vaginal lactobacilli, times higher than those observed in G. vaginalis [8]: about 15 times
